Data set [1] deals with human peripheral blood mononuclear cells (PBMCs). It counts as cell-based. The settings on record: 72 h. The procedure:
The safe compounds on RBCs (5a-g, 5i-l, 5p-r, 5v-w, 6b-g) were subjected to the in vitro cytotoxicity assay on human peripheral blood mononuclear cells (PBMCs). Viability of cells was measured using neutral red uptake assay as described by Borenfreund and Puerner to determine the concentrations of each compound that were not cytotoxic. The results were interpreted to calculate both the lethal concentration that kills 50% of cells (LD50) and the maximum safe concentration that causes 100% viability (LD0) of each compound using GraphPad InStat 3.0 software (Figure 6 & Supplementary Table 3).
The PBMCs were isolated by density gradient centrifugation technique as described by Boyum. Blood samples were freshly collected into heparinized or ethylenediaminetetraacetic acid sterile tubes. Blood was diluted using equal volume of RPMI-1640 medium containing 25 mM HEPES and then layered over equal volume of Ficoll-Pague™ Plus (Fisher BioReagents™ Lymphocyte Separation Medium-LSM, PA, USA) and centrifuged (2000 r.p.m. for 30 min at acceleration and deceleration speeds zero & zero) at room temperature. The buffy mononuclear cell layer was collected using sterile Pasteur pipette into 50 ml sterile Falcon tube and washed twice in phosphate-buffered saline (Sigma-Aldrich) using centrifugation (1650 r.p.m. for 5 min). The isolated PBMCs viability was determined by hemocytometer count using the trypan blue exclusion method. The PBMCs were resuspended at 1 × 10^6 cells/ml in RPMI-1640 medium containing 25 mM HEPES supplemented with 10% heat-inactivated FBS. The appropriate number of cells was chosen to be 1 × 10^5 cells/well (100 μl of the prepared suspension).
A 2 mg/ml stock solution of each compound was prepared in DMF and filtered using a 0.2 μM syringe filter. The desired concentrations (20, 10, 5, 2.5 and 1.25 μg/ml) were prepared using serial dilution in a 96-well plate. Compound wells were prepared by adding 100 μl of the previously prepared concentrations to a suspension of 1 × 10^5 PBMCs in 100 μl culture media. Parallel concentrations of the solvent were prepared to be used as controls. Control wells were prepared by adding 100 μl culture media to a suspension of 1 × 10^5 PBMCs in 100 μl culture media. Blank wells contained 200 μl of culture media only (without cells or compound solution). Each set of samples was pipetted in duplicate. The plate was then gently shaken then incubated at 37°C, 5% CO2 for 72 h.
After incubation, neutral red assay was performed as described previously, and surviving cell fraction was calculated according to the previously mentioned equation. Also, the results were interpreted to calculate both the lethal concentration that kills 50% of cells (LD50) and the maximum safe concentration that cause 100% viability (LD0) of each compound using GraphPad InStat 3.0 software.

Data set [2] deals with HepG2 cells infected with hepatitis C virus. The experiment in a line: In vitro anti-HCV screening, qualitative RT-PCR of viral RNA. It counts as cell-based, HCV genotype-4. Particulars: for Result (anti-HCV screening): at the used dose (below LD0 on HepG2 and PBMCs), 72 h, Positive = disappearance of viral RNA-amplified product (174 bp). The source says:
The safe compounds on RBCs (5a-g, 5i-l, 5p-r, 5v-w, 6b-g) were screened for their in vitro anti-HCV activity using the HCC HepG2 cell line infected with the HCV. Monitoring of the HCV viremia pre- and post-antiviral therapy through the detection of viral RNA using qualitative reverse transcription-PCR (RT-PCR) was adopted in the present investigation. This technique was reported to be the most frequently used, reliable and sensitive technique. Inhibition of viral replication was detected by amplification of viral RNA segments by the RT-PCR technique both in the cultivated infected cells alone (as a positive control) and at the specified dose for each test compound at optimal temperature. The test compound was considered to be active when it can inhibit the viral replication inside the HCV-infected HepG2 cells, as evidenced by the disappearance of the viral RNA-amplified products detected by the RT-PCR (compared with positive control).
The used concentration of each compound was chosen to be lower than the LD0 on HepG2 cells. Therefore, 100% viability of HepG2 cells was maintained, to make sure that any inhibitory effect was due to anti-HCV activity rather than cytotoxic activity on HepG2 cells. Moreover, the used concentrations were also chosen to be lower than the LD0 on PBMCs. Consequently, these doses could be used for inhibition of HCV in normal cells infected with the virus.
HepG2 cells were washed twice in RPMI-1640 medium supplemented with 200 μM L-glutamine and […] HEPES buffer. The cells were suspended at 12 × 10^4 cells/ml in RPMI culture medium (RPMI supplemented medium and 10% FBS). The appropriate number of cells to be used was chosen to be 12 × 10^3 cells/well (100 μl of the prepared suspension), and the cells were left to adhere on the polystyrene […] plates in an incubator at 37°C, 5% CO2 and 95% humidity for 24 h. The cells were washed once using RPMI supplemented medium, then infected with 2% HCV-infected serum (the used serum was a pole of ten patients infected with HCV genotype-4 with viral loads: 3.2–9 million IU/ml, G4 HCV RNA) in RPMI culture medium containing 8% FBS. The used dose of each compound was chosen so as to maintain 100% viability of the HepG2 cell line (the dose was lower than the LD0 of each compound on HepG2 cells as calculated from the in vitro anticancer screening). It was reported that, cultured HepG2 cells lost their biotransformation activity due to decrease in cytochrome (CYP) transcription. This waived its effect on the compounds stability during the test. Negative control is HepG2 cells with culture medium without addition of HCV infected serum or addition of tested compounds. Positive control is HepG2 cells with culture medium and infected HCV serum but without addition of tested compounds. After addition of the compounds, the plates were incubated at 37°C, 5% CO2 and 95% humidity for 72 h, followed by RNA extraction. The RNA strand was detected by RT-PCR using HCV-specific primers to the […] region of the virus.
RNA was extracted from HepG2 cells using the method described by El-Awady et al.. Culture cells were mixed with 200 μl of 4 mol/l guanidinium isothiocyanate (Fischer Bioreagents) containing 25 mmol/l sodium citrate (MP Biomedicals, CA, USA), 0.5% sarkosyl (Fischer Bioreagents), 0.1 mol/l β-mercaptoethanol (MP Biomedicals), and 100 μl sodium acetate (Merck). The lysed cells were mixed with an equal volume of phenol, chloroform and isoamyl alcohol (25:24:1, pH 4; Fischer Bioreagents). After vortexing, the mixture was centrifuged (14,000 r.p.m. for 10 min) at 4°C. The aqueous layer was collected and mixed with an equal volume of isopropanol (Acros Organics, Geel, Belgium). After incubation at -20°C overnight, RNA was precipitated by centrifugation (14,000 r.p.m. for 30 min) at 4°C, and the precipitated RNA was washed twice with 70% ethanol. […]

Entries after “also recorded” stand apart in the source; their conditions may differ.

Regarding `CC(=NN=C1SC(=Cc2cn(-c3ccccc3)nc2-c2ccccc2)C(=O)N1c1ccccc1)c1cc2ccccc2o1` [Compound 5a, 2-[1-(Benzofuran-2-yl)ethylidenehydrazono]-5-[(1,3-Diphenyl-1H-pyrazol-4-yl)methylene]-3-phenylthiazolidin-4-one], in data set [1], the “(LD0) PBMCs” value was 11.17 µg/mL, the LD0 came out at 11.17 µg/mL and the LD50 worked out at 13.99 µg/mL. Besides, the “in vitro anti-HCV activity, in words” value in data set [2] (HCV-infected HepG2 cells, RT-PCR) is on record as “showed in vitro anti-HCV activity; also recorded: exhibited in vitro anti-HCV activity”. For the same compound, the “Result (anti-HCV screening)” value in data set [2] is recorded as “Positive”.

For `CC(=NN=C1SC(=Cc2cn(-c3ccccc3)nc2-c2ccc(Cl)cc2)C(=O)N1c1ccccc1)c1cc2ccccc2o1` [Compound 5b, 2-[1-(Benzofuran-2-yl)ethylidenehydrazono]-5-{[3-(4-chlorophenyl)-1-phenyl-1H-pyrazol-4-yl]methylene}-3-phenylthiazolidin-4-one], in data set [1], the “(LD0) PBMCs” value amounted to 5.83 µg/mL, the LD0 amounted to 5.83 µg/mL and the LD50 came to 92.27 µg/mL. Moreover, the “Result (anti-HCV screening)” value in data set [2] was “Negative”.

For the compound `COc1ccc(-c2nn(-c3ccccc3)cc2C=C2SC(=NN=C(C)c3cc4ccccc4o3)N(c3ccccc3)C2=O)cc1` [Compound 5c, 2-[1-(Benzofuran-2-yl)ethylidenehydrazono]-5-{[3-(4-methoxyphenyl)-1-phenyl-1H-pyrazol-4-yl]methylene}-3-phenylthiazolidin-4-one], in data set [1], the “(LD0) PBMCs” value was 32.45 µg/mL, the LD0 amounted to 32.45 µg/mL and the LD50 was 139.19 µg/mL. The “Result (anti-HCV screening)” value in data set [2] is “Negative”.

Take `CC(=NN=C1SC(=Cc2cn(-c3ccccc3)nc2-c2ccccc2)C(=O)N1c1ccc(Cl)cc1)c1cc2ccccc2o1` [Compound 5d, 2-[1-(Benzofuran-2-yl)ethylidenehydrazono]-5-[(1,3-Diphenyl-1H-pyrazol-4-yl)methylene]-3-(4-chlorophenyl)thiazolidin-4-one]: in data set [1], the “(LD0) PBMCs” value was determined as 11.43 µg/mL, the LD0 came out at 11.43 µg/mL and the LD50 was 160.43 µg/mL. Also, the “Result (anti-HCV screening)” value in data set [2] is reported as “Negative”.

`CC(=NN=C1SC(=Cc2cn(-c3ccccc3)nc2-c2ccc(Cl)cc2)C(=O)N1c1ccc(Cl)cc1)c1cc2ccccc2o1` [Compound 5e, 2-[1-(Benzofuran-2-yl)ethylidenehydrazono]-5-{[3-(4-chlorophenyl)-1-phenyl-1H-pyrazol-4-yl]methylene}-3-(4-chlorophenyl)thiazolidin-4-one]: in data set [1], the “(LD0) PBMCs” value stood at 4.26 µg/mL, the LD0 was found to be 4.26 µg/mL and the LD50 stood at 117.12 µg/mL. In data set [2], the “Result (anti-HCV screening)” value is listed as “Negative”.

As to `COc1ccc(-c2nn(-c3ccccc3)cc2C=C2SC(=NN=C(C)c3cc4ccccc4o3)N(c3ccc(Cl)cc3)C2=O)cc1` [Compound 5f, 2-[1-(Benzofuran-2-yl)ethylidenehydrazono]-5-{[3-(4-methoxyphenyl)-1-phenyl-1H-pyrazol-4-yl]methylene}-3-(4-chlorophenyl)thiazolidin-4-one], in data set [1], the “(LD0) PBMCs” value is 5.83 µg/mL, the LD0 was found to be 5.83 µg/mL, the LD50 was 259.71 µg/mL and the “LD50 (PBMCs)” value worked out at 259.71 µg/mL. In addition, the “Result (anti-HCV screening)” value in data set [2] is listed as “Negative”.

Take `COc1ccc(N2C(=O)C(=Cc3cn(-c4ccccc4)nc3-c3ccccc3)SC2=NN=C(C)c2cc3ccccc3o2)cc1` [Compound 5g, 2-[1-(Benzofuran-2-yl)ethylidenehydrazono]-5-[(1,3-Diphenyl-1H-pyrazol-4-yl)methylene]-3-(4-methoxyphenyl)thiazolidin-4-one]: in data set [1], the “(LD0) PBMCs” value turned out to be 8.88 µg/mL, the LD0 came to 8.88 µg/mL and the LD50 came out at 39.01 µg/mL. Further, the “Result (anti-HCV screening)” value in data set [2] is on record as “Negative”.
